The record followed here is patent US8389011B2, “Pharmaceutical compositions of cholesteryl ester transfer protein inhibitors” (Bend Research, Inc., priority 2000, dated 2013).

The data set is described as follows: In vitro dissolution test, microcentrifuge method, in phosphate buffered saline (PBS) pH 6.5. Type of data set: physicochemical. Particulars: for Concentration / AUC: Table 18, Drug 10 or Drug 11, PBS pH 6.5, 37° C., TCmax 1000 μg/mL. As for the experimental part: The compositions comprising the CETP inhibitor and concentration-enhancing polymer provide enhanced concentration of the dissolved CETP inhibitor in in vitro dissolution tests. […] An appropriate PBS solution is an aqueous solution comprising 20 mM sodium phosphate (Na2HPO4), 47 mM potassium phosphate (KH2PO4), 87 mM NaCl, and 0.2 mM KCl, adjusted to pH 6.5 with NaOH. An appropriate MFD solution is the same PBS solution wherein additionally is present 7.3 mM sodium taurocholic acid and 1.4 mM of 1-palmitoyl-2-oleyl-sn-glycero-3-phosphocholine. In particular, a composition of the present invention can be dissolution-tested by adding it to MFD or PBS solution and agitating to promote dissolution.
Indeed, for some extremely insoluble CETP inhibitors, in order to identify the MDC achieved it may be necessary to use an amount of test composition such that if all of the CETP inhibitor dissolved, the CETP inhibitor concentration would be 10,000-fold or even more, that of the equilibrium concentration of the CETP inhibitor.
The MDC is taken to be the maximum value of dissolved CETP inhibitor measured over the duration of the test.
Filtration can be conducted using a 13 mm, 0.45 μm polyvinylidine difluoride syringe filter sold by Scientific Resources under the trademark TITAN®. Centrifugation is typically carried out in a polypropylene microcentrifuge tube by centrifuging at 13,000 G for 60 seconds. Other similar filtration or centrifugation methods can be employed and useful results obtained.
The spray-dried dispersions of Examples 6 and 7 were evaluated in an in vitro dissolution test using a microcentrifuge method. In this test, the spray-dried dispersion was added to a microcentrifuge tube for a Drug 2 dose of about 1000 μg/mL (7.2 mg for Example 6, 18 mg for Example 7). The tube was placed in a 37° C. sonicating bath, and 1.8 mL phosphate buffered saline (PBS) at pH 6.5 and 290 mOsm/kg was added. The samples were quickly mixed using a vortex mixer for about 60 seconds. The samples were centrifuged at 13,000 G at 37° C. for 1 minute. The resulting supernatant solution was then sampled and diluted 1:6 (by volume) with methanol and then analyzed by high-performance liquid chromatography (HPLC). The contents of the tubes were mixed on the vortex mixer and allowed to stand undisturbed at 37° C. until the next sample was taken. Samples were collected at 4, 10, 20, 40, 90, and 1200 minutes.
For Control 2, an in vitro dissolution test was performed using the procedures described above except that 1.8 mg of crystalline Drug 2 was used.
In this method, 7.2 mg of each spray-dried dispersion was added to a 2-mL microcentrifuge tube. The tube was placed in a 37° C. sonicating bath, and 1.8 mL of a phosphate-buffered saline (PBS) solution at pH 6.5 and 290 mOsm/kg was added, resulting in a TCmax of 400 μg/mL. The samples were quickly mixed using a combination of vortex mixer and sonication for about 90 seconds. The samples were centrifuged at 13,000 G at 37° C. for 1 minute. The resulting supernatant solution was then sampled and diluted 1:6 (by volume) with methanol and then analyzed by HPLC. The tubes were then mixed on the vortex mixer and allowed to stand undisturbed at 37° C. until the next sample. Samples were collected at 4, 10, 20, 40, 90 and 1200 minutes.
For Control 5, an in vitro dissolution test was performed using the procedure described above, except that 0.72 mg of non-crystalline Drug 3 was placed in a microcentrifuge tube and mixed with 1.8 mL of PBS.
In this method, 15 mg of each SDD was added to a 2-mL microcentrifuge tube. The tube was placed in a 37° C. sonicating bath, and 1.5 mL of a phosphate-buffered saline (PBS) solution at pH 6.5 and 290 mOsm/kg) was added, resulting in a TCmax of 1000 μg/mL. The samples were quickly mixed using a combination of vortex mixer and sonication for about 90 seconds.

[1] abbreviates: Table 19: Drugs 10 and 11, PBS pH 6.5, TCmax 1000 μg/mL.

SMILES strings stand for the structures. Some results are limits rather than exact numbers.

Turning to `CC(C)c1cc2c(c(-c3ccc(F)cc3)c1[C@@H](F)c1ccc(C(F)(F)F)cc1)[C@@H](O)CC1(CCC1)C2` [Control 12, (4′S)-5′-(4-fluorophenyl)-6′-[(S)-fluoro[4-(trifluoromethyl)phenyl]methyl]-3′,4′-dihydro-7′-(1-methylethyl)-spiro[cyclobutane-1,2′(1′H)-naphthalen]-4′-ol], the Concentration came out at 0 ng/mL (0 min); 0 ng/mL (4 min); 1000 ng/mL (10 min); 3000 ng/mL (20 min); 6000 ng/mL (40 min); 1000 ng/mL (90 min). For the setting “1200 min”, the Concentration turned out to be 0 ng/mL. Also, the AUC is, setting by setting: (to 0 min) 0 min-μg/mL; (to 4 min) 0 min-μg/mL; (to 10 min) 0 min-μg/mL; (to 20 min) 0 min-μg/mL; (to 40 min) 100 min-μg/mL; (to 90 min) 300 min-μg/mL. Besides, where the note is “to 1200 min”, the AUC is given as 1,100 min-μg/mL. Further, under setting [1], the AUC90 is 300 min-μg/mL. Moreover, the “Cmax, 90” value under setting [1] was 6000 ng/mL.
Take `CCc1cc(Oc2cccc(N(Cc3cccc(OC(F)(F)C(F)F)c3)C[C@@H](O)C(F)(F)F)c2)ccc1Cl` [Control 13, (2R)-3-[[3-(4-chloro-3-ethylphenoxy)phenyl][[3-(1,1,2,2-tetrafluoroethoxy)phenyl]methyl]amino]-1,1,1-trifluoro-2-propanol]: the Concentration is 0 ng/mL (0 min); 1000 ng/mL (4 min); 1000 ng/mL (10 min); 1000 ng/mL (20 min); 1000 ng/mL (40 min); 1000 ng/mL (90 min). In addition, the Concentration (1200 min) is 0 ng/mL. In addition, the AUC (to 0 min) is on record as 0 min-μg/mL; the AUC (to 4 min) was 0 min-μg/mL; the AUC (to 10 min) was found to be 0 min-μg/mL; the AUC (to 20 min) was found to be 0 min-μg/mL; the AUC (to 40 min) stood at 0 min-μg/mL; the AUC (to 90 min) is on record as 100 min-μg/mL. Also, the AUC (to 1200 min) came out at 600 min-μg/mL. The AUC90 under setting [1] is given as 80 min-μg/mL. For the same compound, the “Cmax, 90” value under setting [1] was 1000 ng/mL.
Regarding `CC[C@@H]1C[C@H](N(Cc2cc(C(F)(F)F)cc(C(F)(F)F)c2)C(=O)OC)c2cc(C(F)(F)F)ccc2N1C(=O)OC(C)C` [Control 14, [2R,4S]4-[(3,5-bis-trifluoromethyl-benzyl)-methoxycarbonyl-amino]-2-ethyl-6-trifluoromethyl-3,4-dihydro-2H-quinoline-1-carboxylic acid isopropyl ester], for the setting “Table 34: Drug 12, PBS”, the AUC90 is listed as below 88 min-μg/mL and the “Cmax, 90” value is below 1000 ng/mL.
